Results taken from ChEMBL document CHEMBL1649539, “Pharmacokinetics-pharmacodynamics of pyrazinamide in a novel in vitro model of tuberculosis for sterilizing effect: a paradigm for faster assessment of new antituberculosis drugs” (Antimicrob Agents Chemother, 2009).
Calls of active or inactive are those of the source. The calls are words filed in the database; no cut-off is given here.

Experiments:
[1] = tested on: Mycobacterium tuberculosis; test: Antimycobacterial activity against Mycobacterium tuberculosis H37Rv isolated from patient with tuberculosis at >= 15 mg/kg, po after 14 to 21 days; type: functional, organism-based; design: dose 15 mg/kg
[2] = Volume of distribution in Mycobacterium tuberculosis H37Rv; type: ADME, organism-based; conditions: in vivo
[3] = tested on: Mycobacterium tuberculosis; test: Antimycobacterial activity against Mycobacterium tuberculosis H37Rv isolated from patient with tuberculosis assessed as bacterial load per day at 15 to 30 mg/kg, po after 2.5 to 3 weeks; type: functional
[4] = Absorption rate constant in Mycobacterium tuberculosis H37Rv; type: ADME
[5] = Ratio of AUC (0 to 24 hrs) to MIC associated with 0.5 log10CFU/ml bacterial count in patient infected with Mycobacterium tuberculosis H37Rv; type: functional
[6] = Clearance in Mycobacterium tuberculosis H37Rv; type: ADME
[7] = Ratio of AUC (0 to 24 hrs) to MIC associated with 2 log10CFU/ml bacterial count in patient infected with Mycobacterium tuberculosis H37Rv; type: functional
[8] = Elimination rate constant in Mycobacterium tuberculosis H37Rv; type: ADME
[9] = Ratio of AUC (0 to 24 hrs) to MIC associated with 1 log10CFU/ml bacterial count in patient infected with Mycobacterium tuberculosis H37Rv; type: functional
[10] = tested on: Mycobacterium tuberculosis; test: Antimycobacterial activity against Mycobacterium tuberculosis H37Rv isolated from patient with tuberculosis assessed as bacterial load per day at >= 15 mg/kg, po after 4 days; type: functional

NC(=O)c1cnccn1 [PYRAZINAMIDE]
Activity [1]: inactive | Vd [2]: 1.68 L/kg | log10CFU/ml/day [3]: 0.09 | Ka [4]: 3.45 h⁻¹ | log10CFU/ml [5]: 9.43 | clearance [6]: 1.67 mL/min/kg | log10CFU/ml [7]: 66.67 | k el [8]: 1.67e-05 s⁻¹ | log10CFU/ml [9]: 20.26 | log10CFU/ml/day [10]: 0.05
